pIC50, pKd: −log10 of the molar value.
Columns and labels:
ALDH9A1 [1] = target: T1, ALDH9A1 (Homo sapiens, UniProt P49189); assay: inhibition of TMABAL oxidation by purified enzyme (NADH formation); preincubation and dialysis; also slow substrate; type: biochemical
T1 construct: recombinant ALDH9A1

ALDH9A1 [2] = target: T1, ALDH9A1; assay: MST (RED-tris-NTA labelled enzyme); also NADH-formation activity assay; type: binding
ALDH9A1 [3] = target: T1, ALDH9A1; assay: MST; also inhibition of TMABAL and ABAL oxidation at […]; type: binding

T1 sequence (P49189 whole entry): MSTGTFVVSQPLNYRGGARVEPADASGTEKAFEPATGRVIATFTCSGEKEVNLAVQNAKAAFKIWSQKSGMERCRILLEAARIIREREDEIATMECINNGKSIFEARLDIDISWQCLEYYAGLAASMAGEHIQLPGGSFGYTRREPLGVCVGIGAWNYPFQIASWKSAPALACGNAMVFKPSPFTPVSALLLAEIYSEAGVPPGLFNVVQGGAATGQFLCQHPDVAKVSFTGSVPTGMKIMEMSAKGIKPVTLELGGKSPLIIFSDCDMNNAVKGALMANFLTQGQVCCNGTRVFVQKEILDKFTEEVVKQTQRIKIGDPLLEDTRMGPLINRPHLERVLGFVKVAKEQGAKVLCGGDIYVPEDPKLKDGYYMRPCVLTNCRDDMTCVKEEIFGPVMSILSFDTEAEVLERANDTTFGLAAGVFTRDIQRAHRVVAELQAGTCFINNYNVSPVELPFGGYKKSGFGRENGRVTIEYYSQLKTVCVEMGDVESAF

CC(C)=CCC/C(C)=C/CC/C(C)=C/C=O [FCHO, farnesal]
pIC50 (ALDH9A1 [1]): ~5.00

C[N+](C)(C)CCCC=O [TMABAL]
pKd (ALDH9A1 [2]): 4.96

C[N+](C)(C)NCCC(=O)[O-] [meldonium, 3-(2,2,2-trimethylhydrazinium) propionate]
pKd (ALDH9A1 [3]): 2.92

Source: article PMC10619140, “Thinking outside the CaaX-box: an unusual reversible prenylation on ALDH9A1” (RSC Chemical Biology, 2023)
